In ChEMBL document CHEMBL1201861, “Genomics of Drug Sensitity in Cancer screening data, Wellcome Trust Sanger Institute”:

Columns and labels:
Ca-Ski = experiment: cells; format: functional, cell-based; conditions: Homo sapiens;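 further: cell viability assay measuring inhibition of Ca-Ski cell growth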
Description: SANGER: Inhibition of human Ca-Ski cell growth in a cell viability assay.

DOK = experiment: cells; format: functional, cell-based; conditions: Homo sapiens;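 further: cell viability assay read-out, values reflect inhibition of cell growth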
Description: SANGER: Inhibition of human DOK cell growth in a cell viability assay.

EB-3 = experiment: cells; format: functional, cell-based, Homo sapiens; conditions: Homo sapiens, EB-3;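 further: human EB-3 cells, growth inhibition read out via a cell viability assay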
Description: SANGER: Inhibition of human EB-3 cell growth in a cell viability assay.

EGI-1 = experiment: cells; format: functional, cell-based; conditions: Homo sapiens;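 further: cell viability readout used to gauge growth inhibition of EGI-1 cells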
Description: SANGER: Inhibition of human EGI-1 cell growth in a cell viability assay.

FaDu = experiment: cells; format: functional, cell-based; conditions: Homo sapiens;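 further: cell viability readout of growth inhibition in FaDu cells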
Description: SANGER: Inhibition of human FADU cell growth in a cell viability assay.

FTC-133 = experiment: cells; format: functional, cell-based; conditions: Homo sapiens
G-401 = experiment: cells; format: functional, cell-based; conditions: Homo sapiens
Description: SANGER: Inhibition of human G-401 cell growth in a cell viability assay.

GP5d = experiment: cells; format: functional, cell-based; conditions: Homo sapiens;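 further: growth inhibition of human GP5d cells, read out with a cell viability assay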
Description: SANGER: Inhibition of human GP5d cell growth in a cell viability assay.

HC-1 = experiment: cells; format: functional, cell-based, Homo sapiens; conditions: Homo sapiens, HC-1;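 further: growth inhibition of HC-1 cells measured by a cell viability assay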
Description: SANGER: Inhibition of human HC-1 cell growth in a cell viability assay.

HCC1395 = experiment: cells; format: functional, cell-based; conditions: Homo sapiens;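 further: growth inhibition of HCC1395 cells, read out by a cell viability assay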
Description: SANGER: Inhibition of human HCC1395 cell growth in a cell viability assay.

HCC70 = experiment: cells; format: functional, cell-based; conditions: Homo sapiens;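 further: cell viability assay measuring how strongly the compound suppresses proliferation of HCC70 cells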
Description: SANGER: Inhibition of human HCC70 cell growth in a cell viability assay.

HO-1-N-1 = experiment: cells; format: functional, cell-based; conditions: Homo sapiens;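 further: growth inhibition of human HO-1-N-1 cells, read out with a cell viability assay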
Description: SANGER: Inhibition of human HO-1-N-1 cell growth in a cell viability assay.

HPAF-II = experiment: cells; format: functional, cell-based; conditions: Homo sapiens;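 further: growth inhibition of HPAF-II cells, read out with a cell viability assay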
Description: SANGER: Inhibition of human HPAF-II cell growth in a cell viability assay.

HT55 = experiment: cells; format: functional, cell-based; conditions: Homo sapiens;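 further: cell viability readout measuring growth inhibition of human HT55 cells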
Description: SANGER: Inhibition of human HT55 cell growth in a cell viability assay.

Hs-578T = experiment: cells; format: functional, cell-based; conditions: Homo sapiens
Description: SANGER: Inhibition of human Hs-578-T cell growth in a cell viability assay.

IGR-1 = experiment: cells; format: functional, cell-based; conditions: Homo sapiens;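 further: growth inhibition of human IGR-1 cells, read out with a cell viability assay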
Description: SANGER: Inhibition of human IGR-1 cell growth in a cell viability assay.

J82 = experiment: cells; format: functional, cell-based; conditions: Homo sapiens;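 further: growth inhibition of J82 cells, read out with a cell viability assay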
Description: SANGER: Inhibition of human J82 cell growth in a cell viability assay.

K052 = experiment: cells; format: functional, cell-based, Homo sapiens; conditions: Homo sapiens, K052;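 further: Read-out from a cell viability assay, IC50 reflecting suppression of K052 cell growth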
Description: SANGER: Inhibition of human K052 cell growth in a cell viability assay.

KYSE-140 = experiment: cells; format: functional, cell-based; conditions: Homo sapiens;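 further: cell viability assay measuring growth inhibition in human KYSE-140 cells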
Description: SANGER: Inhibition of human KYSE-140 cell growth in a cell viability assay.

KYSE-150 cell line = experiment: cells; format: functional, cell-based; conditions: Homo sapiens;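 further: growth inhibition of human KYSE-150 cells, read out with a cell viability assay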
Description: SANGER: Inhibition of human KYSE-150 cell growth in a cell viability assay.

KYSE-510 = experiment: cells; format: functional, cell-based; conditions: Homo sapiens;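 further: cell viability readout used to measure how strongly growth of the cell line is suppressed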
Description: SANGER: Inhibition of human KYSE-510 cell growth in a cell viability assay.

LK-2 = experiment: cells; format: functional, cell-based; conditions: Homo sapiens;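 further: growth inhibition of LK-2 cells, read out with a viability assay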
Description: SANGER: Inhibition of human LK-2 cell growth in a cell viability assay.

LOUCY = experiment: cells; format: functional, cell-based, Homo sapiens; conditions: Homo sapiens, LOUCY;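 further: growth inhibition of human LOUCY cells, read out with a cell viability assay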
Description: SANGER: Inhibition of human LOUCY cell growth in a cell viability assay.

M059J = experiment: cells; format: functional, cell-based; conditions: Homo sapiens;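 further: growth inhibition of M059J cells, read out with a cell viability assay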
Description: SANGER: Inhibition of human M059J cell growth in a cell viability assay.

MC-IXC = experiment: cells; format: functional, cell-based; conditions: Homo sapiens;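 further: growth inhibition of MC-IXC cells, read out with a cell viability assay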
Description: SANGER: Inhibition of human MC-IXC cell growth in a cell viability assay.

MDA-MB-361 = experiment: cells; format: functional, cell-based; conditions: Homo sapiens
MDA-MB-453 = experiment: cells; format: functional, cell-based; conditions: Homo sapiens
Description: SANGER: Inhibition of human MDA-MB-453 cell growth in a cell viability assay.

MEL-HO = experiment: cells; format: functional, cell-based; conditions: Homo sapiens
Description: SANGER: Inhibition of human MEL-HO cell growth in a cell viability assay.

MG-63 = experiment: cells; format: functional, cell-based; conditions: Homo sapiens;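 further: growth inhibition of human MG-63 cells, read out with a cell viability assay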
Description: SANGER: Inhibition of human MG-63 cell growth in a cell viability assay.

NCI-H1436 = experiment: cells; format: functional, cell-based, Homo sapiens; conditions: Homo sapiens, NCI-H1436;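 further: growth suppression of human NCI-H1436 cells, determined with a cell viability readout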
Description: SANGER: Inhibition of human NCI-H1436 cell growth in a cell viability assay.

NCI-H1437 = experiment: cells; format: functional, cell-based; conditions: Homo sapiens;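 further: growth inhibition of human NCI-H1437 cells, read out by a cell viability assay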
Description: SANGER: Inhibition of human NCI-H1437 cell growth in a cell viability assay.

NCI-H1963 = experiment: cells; format: functional, cell-based, Homo sapiens; conditions: Homo sapiens, NCI-H1963
Description: SANGER: Inhibition of human NCI-H1963 cell growth in a cell viability assay.

NCI-H2141 = experiment: cells; format: functional, cell-based, Homo sapiens; conditions: Homo sapiens, NCI-H2141;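 further: growth inhibition of human NCI-H2141 cells, read out with a cell viability assay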
Description: SANGER: Inhibition of human NCI-H2141 cell growth in a cell viability assay.

NCI-H2171 = experiment: cells; format: functional, cell-based, Homo sapiens; conditions: Homo sapiens, NCI-H2171;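 further: growth inhibition of human NCI-H2171 cells, read out by a cell viability assay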
Description: SANGER: Inhibition of human NCI-H2171 cell growth in a cell viability assay.

NCI-H441 = experiment: cells; format: functional, cell-based; conditions: Homo sapiens;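 further: growth inhibition of NCI-H441 cells, read out with a cell viability assay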
Description: SANGER: Inhibition of human NCI-H441 cell growth in a cell viability assay.

NCI-H522 = experiment: cells; format: functional, cell-based; conditions: Homo sapiens;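 further: cell viability assay measuring growth inhibition of human NCI-H522 cells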
Description: SANGER: Inhibition of human NCI-H522 cell growth in a cell viability assay.

NCI-H596 = experiment: cells; format: functional, cell-based; conditions: Homo sapiens;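 further: growth inhibition of NCI-H596 cells, read out with a cell viability assay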
Description: SANGER: Inhibition of human NCI-H596 cell growth in a cell viability assay.

NCI-H64 = experiment: cells; format: functional, cell-based, Homo sapiens; conditions: Homo sapiens, NCI-H64;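 further: growth inhibition of NCI-H64 cells, read out with a cell viability assay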
Description: SANGER: Inhibition of human NCI-H64 cell growth in a cell viability assay.

OPM-2 = experiment: cells; format: functional, cell-based, Homo sapiens; conditions: Homo sapiens, OPM-2;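 further: growth of OPM-2 cells measured with a viability assay, IC50 for suppression of proliferation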
Description: SANGER: Inhibition of human OPM-2 cell growth in a cell viability assay.

P12-Ichikawa = experiment: cells; format: functional, cell-based; conditions: Homo sapiens
PF-382 = experiment: cells; format: functional, cell-based, Homo sapiens; conditions: Homo sapiens, PF-382
Description: SANGER: Inhibition of human PF-382 cell growth in a cell viability assay.

RCM-1 = experiment: cells; format: functional, cell-based; conditions: Homo sapiens;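 further: growth inhibition of the RCM-1 line, determined with a cell viability readout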
Description: SANGER: Inhibition of human RCM-1 cell growth in a cell viability assay.

RERF-LC-MS = experiment: cells; format: functional, cell-based; conditions: Homo sapiens;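 further: growth inhibition of human RERF-LC-MS cells, read out by a cell viability assay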
Description: SANGER: Inhibition of human RERF-LC-MS cell growth in a cell viability assay.

RPMI-2650 = experiment: cells; format: functional, cell-based; conditions: Homo sapiens
Description: SANGER: Inhibition of human RPMI-2650 cell growth in a cell viability assay.

SCC-9 = experiment: cells; format: functional, cell-based; conditions: Homo sapiens;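 further: Read-out is a cell viability assay, with values giving inhibition of cell growth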
Description: SANGER: Inhibition of human SCC-9 cell growth in a cell viability assay.

SCLC-21H = experiment: cells; format: functional, cell-based, Homo sapiens; conditions: Homo sapiens, SCLC-21H;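 further: growth inhibition of cultured human SCLC-21H cells, read out with a cell viability assay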
Description: SANGER: Inhibition of human SCLC-21H cell growth in a cell viability assay.

SK-OV-3 = experiment: cells; format: functional, cell-based; conditions: Homo sapiens;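 further: growth inhibition of SK-OV-3 human cells, read out with a cell viability assay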
Description: SANGER: Inhibition of human SK-OV-3 cell growth in a cell viability assay.

SR = experiment: cells; format: functional, cell-based, Homo sapiens; conditions: Homo sapiens, SR
Description: SANGER: Inhibition of human SR cell growth in a cell viability assay.

A2780 = experiment: cells; format: functional, cell-based; conditions: Homo sapiens;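 further: growth inhibition of A2780 cells, read out with a cell viability assay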
Description: SANGER: Inhibition of human A2780 cell growth in a cell viability assay.

BC1 cell line = experiment: SANGER: Inhibition of human BC-1 cell growth in a cell viability assay.; format: functional, cell-based; conditions: Homo sapiens, BC1
BXPC-3 = experiment: cells; format: functional, cell-based; conditions: Homo sapiens;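 further: growth inhibition of human BxPC-3 cells, read out by a cell viability assay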
Description: SANGER: Inhibition of human BxPC-3 cell growth in a cell viability assay.

CAL-120 = experiment: cells; format: functional, cell-based; conditions: Homo sapiens;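 further: cell growth inhibition, read out as cell viability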
Description: SANGER: Inhibition of human CAL-120 cell growth in a cell viability assay.

CAL-33 = experiment: cells; format: functional, cell-based; conditions: Homo sapiens;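 further: growth inhibition of CAL-33 cells, read out with a cell viability assay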
Description: SANGER: Inhibition of human CAL-33 cell growth in a cell viability assay.

TYK-nu = experiment: cells; format: functional, cell-based; conditions: Homo sapiens;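 further: growth inhibition of human TYK-nu cells, read out by a cell viability assay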
Description: SANGER: Inhibition of human TYK-nu cell growth in a cell viability assay.

YKG-1 = experiment: cells; format: functional, cell-based; conditions: Homo sapiens;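 further: cell growth inhibition, read out with a viability assay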
Description: SANGER: Inhibition of human YKG-1 cell growth in a cell viability assay.

CAPAN-1 = experiment: cells; format: functional, cell-based; conditions: Homo sapiens;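 further: growth suppression of CAPAN-1 cells, read out by a cell viability assay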
Description: SANGER: Inhibition of human CAPAN-1 cell growth in a cell viability assay.

CHP-126 = experiment: cells; format: functional, cell-based, Homo sapiens; conditions: Homo sapiens, CHP-126
Description: SANGER: Inhibition of human CHP-126 cell growth in a cell viability assay.

COc1ccc(-c2cc3nccn3c(Nc3ncccc3C(N)=O)n2)cc1OC
IC50 (Ca-Ski): 4.55 µM
IC50 (DOK): > 8 µM
IC50 (EB-3): > 8 µM
IC50 (EGI-1): > 8 µM
IC50 (FaDu): > 8 µM
IC50 (FTC-133): > 8 µM
IC50 (G-401): 5.75 µM
IC50 (GP5d): > 8 µM
IC50 (HC-1): 0.754 µM
IC50 (HCC1395): > 8 µM
IC50 (HCC70): 1.93 µM
IC50 (HO-1-N-1): > 8 µM
IC50 (HPAF-II): > 8 µM
IC50 (HT55): > 8 µM
IC50 (Hs-578T): > 8 µM
IC50 (IGR-1): 6.54 µM
IC50 (J82): 1.51 µM
IC50 (K052): > 8 µM
IC50 (KYSE-140): 3.75 µM
IC50 (KYSE-150 cell line): 6.05 µM
IC50 (KYSE-510): 2.87 µM
IC50 (LK-2): > 8 µM
IC50 (LOUCY): 3.65 µM
IC50 (M059J): 2.84 µM
IC50 (MC-IXC): > 8 µM
IC50 (MDA-MB-361): > 8 µM
IC50 (MDA-MB-453): > 8 µM
IC50 (MEL-HO): 2.95 µM
IC50 (MG-63): > 8 µM
IC50 (NCI-H1436): > 8 µM
IC50 (NCI-H1437): 1.8 µM
IC50 (NCI-H1963): > 8 µM
IC50 (NCI-H2141): > 8 µM
IC50 (NCI-H2171): > 8 µM
IC50 (NCI-H441): 5.65 µM
IC50 (NCI-H522): > 8 µM
IC50 (NCI-H596): > 8 µM
IC50 (NCI-H64): 2.16 µM
IC50 (OPM-2): 6.16 µM
IC50 (P12-Ichikawa): 4.37 µM
IC50 (PF-382): 2.41 µM
IC50 (RCM-1): > 8 µM
IC50 (RERF-LC-MS): > 8 µM
IC50 (RPMI-2650): 0.696 µM
IC50 (SCC-9): > 8 µM
IC50 (SCLC-21H): > 8 µM
IC50 (SK-OV-3): > 8 µM
IC50 (SR): 0.548 µM
IC50 (A2780): 1.53 µM
IC50 (BC1 cell line): 1.07 µM
IC50 (BXPC-3): 2.86 µM
IC50 (CAL-120): > 8 µM
IC50 (CAL-33): > 8 µM
IC50 (TYK-nu): > 8 µM
IC50 (YKG-1): 2.65 µM
IC50 (CAPAN-1): 4.16 µM
IC50 (CHP-126): 6.5 µM

OC[C@H](Cc1ccccc1)Nc1nc(Oc2ccc3c(c2)CCC3)nc2c1ncn2Cc1ccc(-c2ccccc2)cc1
IC50 (Ca-Ski): > 10.2 µM
IC50 (DOK): > 10.2 µM
IC50 (EB-3): > 10.2 µM
IC50 (EGI-1): > 10.2 µM
IC50 (FaDu): > 10.2 µM
IC50 (FTC-133): > 10.2 µM
IC50 (G-401): > 10.2 µM
IC50 (GP5d): > 10.2 µM
IC50 (HC-1): > 10.2 µM
IC50 (HCC1395): > 10.2 µM
IC50 (HCC70): > 10.2 µM
IC50 (HO-1-N-1): > 10.2 µM
IC50 (HPAF-II): > 10.2 µM
IC50 (HT55): > 10.2 µM
IC50 (Hs-578T): > 10.2 µM
IC50 (IGR-1): > 10.2 µM
IC50 (J82): 9.51 µM
IC50 (K052): > 10.2 µM
IC50 (KYSE-140): 7.49 µM
IC50 (KYSE-150 cell line): 9.34 µM
IC50 (KYSE-510): 3.45 µM
IC50 (LK-2): > 10.2 µM
IC50 (LOUCY): > 10.2 µM
IC50 (M059J): > 10.2 µM
IC50 (MC-IXC): > 10.2 µM
IC50 (MDA-MB-361): > 10.2 µM
IC50 (MDA-MB-453): > 10.2 µM
IC50 (MEL-HO): 8.39 µM
IC50 (MG-63): 4.63 µM
IC50 (NCI-H1436): > 10.2 µM
IC50 (NCI-H1437): 6.89 µM
IC50 (NCI-H1963): > 10.2 µM
IC50 (NCI-H2141): > 10.2 µM
IC50 (NCI-H2171): > 10.2 µM
IC50 (NCI-H441): > 10.2 µM
IC50 (NCI-H522): > 10.2 µM
IC50 (NCI-H596): > 10.2 µM
IC50 (NCI-H64): > 10.2 µM
IC50 (OPM-2): > 10.2 µM
IC50 (P12-Ichikawa): 7.93 µM
IC50 (PF-382): > 10.2 µM
IC50 (RCM-1): > 10.2 µM
IC50 (RERF-LC-MS): > 10.2 µM
IC50 (RPMI-2650): > 10.2 µM
IC50 (SCC-9): > 10.2 µM
IC50 (SCLC-21H): > 10.2 µM
IC50 (SK-OV-3): > 10.2 µM
IC50 (SR): > 10.2 µM
IC50 (A2780): > 10.2 µM
IC50 (BC1 cell line): > 10.2 µM
IC50 (BXPC-3): > 10.2 µM
IC50 (CAL-120): > 10.2 µM
IC50 (CAL-33): > 10.2 µM
IC50 (TYK-nu): > 10.2 µM
IC50 (YKG-1): 7.11 µM
IC50 (CAPAN-1): > 10.2 µM
IC50 (CHP-126): > 10.2 µM
